Molecules are shown by their SMILES.

Assay [1] concerns acetaminophen-induced acute hepatic failure. In words: Animal survival in acetaminophen-induced acute hepatic failure, comparison of Mangafodipir, MnTBAP and CuDIPS (Example 7). As to conditions: for number of surviving animals: 10 mg/kg bolus 2 h before 1000 mg/kg APAP, n = 12. Type of assay: in vivo, mice. As to the method: The Mangafodipir, the MnTBAP or the CuDIPS are administered in the form of a bolus, in the preventive capacity, 2 hours before the acetaminophen.
Animal survival is monitored for 24 hours after the administration of acetaminophen.

In assay [2] the test system is hepatocellular deficiency. As to conditions: inventors' prior studies (PCT/WO 01/12327; Ferret et al. 2001); cited from earlier work.

Turning to `O=C(O)c1ccc(-c2c3nc(c(-c4ccc(C(=O)O)cc4)c4ccc([n-]4)c(-c4ccc(C(=O)O)cc4)c4nc(c(-c5ccc(C(=O)O)cc5)c5ccc2[n-]5)C=C4)C=C3)cc1.[Mn+3]` [MnTBAP, Mn(III)-tetrakis(5,10,15,20-benzoic acid)-porphyrin], the “number of surviving animals” value in assay [1] (time 0 h) is reported as 12; in assay [1] (time 6 h) it was 12; in assay [1] (time 8 h), 12; in assay [1] (time 9 h), 12; in assay [1] (time 10 h) it was 11; in assay [1] (time 11 h) it was 10. Moreover, the “number of surviving animals” value in assay [1] (time 12 h) is on record as 10; in assay [1] (time 13 h), 10; in assay [1] (time 14 h) it was 9; in assay [1] (time 15 h), 9; in assay [1] (time 16 h) it was 8; in assay [1] (time 17 h), 8. Besides, the “number of surviving animals” value in assay [1] (time 18 h) was 8; in assay [1] (time 20 h), 8; in assay [1] (time 22 h), 7; in assay [1] (time 24 h), 7. Also, the “effect on hepatocellular deficiency” value in assay [2] is “notable preventive and curative effect”.
With `CC(C)c1cc(C(=O)[O-])c(O)c(C(C)C)c1.CC(C)c1cc(C(=O)[O-])c(O)c(C(C)C)c1.[Cu+2]` [CuDIPS, Cu[II]-[diisopropylsalicylate]], the “number of surviving animals” value in assay [1] (time 0 h) amounted to 12; in assay [1] (time 6 h) it was 12; in assay [1] (time 8 h), 11; in assay [1] (time 9 h), 10; in assay [1] (time 10 h) it was 9; in assay [1] (time 11 h), 7. The “number of surviving animals” value in assay [1] (time 12 h) is reported as 7; in assay [1] (time 13 h), 5; in assay [1] (time 14 h) it was 5; in assay [1] (time 15 h), 5; in assay [1] (time 16 h) it was 4; in assay [1] (time 17 h) it was 4. Moreover, the “number of surviving animals” value in assay [1] (time 18 h), in assay [1] (time 20 h), in assay [1] (time 22 h) and in assay [1] (time 24 h) was 3 throughout. In addition, in assay [1] (10 mg/kg preventively, 1000 mg/kg APAP, 24 h), the “effect on survival rate” value is “does not significantly increase the survival rate”. The “effect on hepatocellular deficiency” value in assay [2] is on record as “no significant effect”.

The record behind these values is patent US7351722B2, “Use of Mangafodipir for treating oxidative stress effects” (Universite Rene Descartes (Paris V), priority 2001, dated 2008).
